The results in this text go back to ChEMBL document CHEMBL3861999, “Investigation of C-5 alkynyl (alkynyloxy or hydroxymethyl) and/or N-3 propynyl substituted pyrimidine nucleoside analogs as a new class of antimicrobial agents” (Bioorg Med Chem, 2016).

Series [1] relates to Staphylococcus aureus. The series can be described thus: Antibacterial activity against Staphylococcus aureus ATCC 25923 after 16 to 20 hrs by broth microdilution method. It counts as functional. Particulars: for MIC: read-out: MIC100. For orientation: In broth dilution the organism is exposed to a series of concentrations in liquid medium.
Series [2] deals with Enterococcus faecalis. The series can be described thus: Antibacterial activity against Enterococcus faecalis ATCC 29212 after 16 to 20 hrs by broth microdilution method. It is filed as functional. The settings on record: for MIC: read-out: MIC100.
In series [3] the test system is Escherichia coli. The series can be described thus: Antibacterial activity against Escherichia coli ATCC 25922 after 16 to 20 hrs by broth microdilution method. It is filed as functional.
Another series deals with Salmonella typhimurium. The series can be described thus: Antibacterial activity against clinical isolates of Salmonella typhimurium after 16 to 20 hrs by broth microdilution method. It is filed as functional. The settings on record: for MIC: Salmonella enterica, read-out: MIC100.
For series [4], the system named is Pseudomonas aeruginosa. Nature of the series: Antibacterial activity against Pseudomonas aeruginosa ATCC 13048 after 16 to 20 hrs by broth microdilution method. It is filed as functional.
In series [5] the test system is Mycobacterium avium. Nature of the series: Growth inhibition of Mycobacterium avium ATCC 25291 at 2 ug/ml after 6 days by microplate alamar blue assay. It is filed as functional, Mycobacterium avium subsp. avium ATCC 25291. The settings on record: ATCC 25291, 144 h, read-out: GI.
The test system of series [6] is Mycobacterium tuberculosis. Nature of the series: Growth inhibition of Mycobacterium tuberculosis H37Ra at 0.5 ug/ml after 6 days by microplate alamar blue assay. It counts as functional. The settings on record: 144 h, read-out: GI. On the technique in general: Resazurin is reduced to fluorescent resorufin, in cell work by metabolically active cells.
Series [7] relates to Mycobacterium tuberculosis. Nature of the series: Growth inhibition of Mycobacterium tuberculosis H37Ra at 0.002 ug/ml after 6 days by microplate alamar blue assay. It counts as functional. Particulars: 144 h, read-out: GI.
Series [8] relates to Mycobacterium tuberculosis. The series can be described thus: Growth inhibition of Mycobacterium tuberculosis H37Ra at 200 ug/ml after 6 days by microplate alamar blue assay. It is filed as functional. Particulars: 144 h, read-out: GI.
Series [9] relates to Mycobacterium avium. The series can be described thus: Growth inhibition of Mycobacterium avium ATCC 25291 at 200 ug/ml after 6 days by microplate alamar blue assay. It counts as functional, Mycobacterium avium subsp. avium ATCC 25291. Particulars: ATCC 25291, 144 h, read-out: GI.
The nature of series [10]: Cytotoxicity against African green monkey Vero cells assessed as decrease in cell viability after 3 days by XTT assay. It is filed as toxicity, cell-based. The settings on record: chlorocebus sabaeus.
Series [11] deals with Staphylococcus aureus. Nature of the series: Growth inhibition of Staphylococcus aureus ATCC 25923 at 100 ug/ml after 6 days in presence of 0.1 ug/ml of gentamicin by microplate alamar blue assay. It counts as functional.
Series [12] concerns Staphylococcus aureus. The series can be described thus: Growth inhibition of Staphylococcus aureus ATCC 25923 assessed as fractional inhibitory concentration index at 100 ug/ml after 6 days in presence of 0.1 ug/ml of gentamicin by microplate alamar blue assay. It is filed as functional.
The test system of series [13] is Enterococcus faecalis. The series can be described thus: Growth inhibition of Enterococcus faecalis ATCC 29212 at 100 ug/ml after 6 days in presence of 4.5 ug/ml of gentamicin by microplate alamar blue assay. It is filed as functional.
The subject of series [14] is Enterococcus faecalis. Nature of the series: Growth inhibition of Enterococcus faecalis ATCC 29212 assessed as fractional inhibitory concentration index at 100 ug/ml after 6 days in presence of 4.5 ug/ml of gentamicin by microplate alamar blue assay. It counts as functional.
The subject of series [15] is Mycobacterium tuberculosis. The series can be described thus: Growth inhibition of Mycobacterium tuberculosis H37Ra at 1 ug/ml after 6 days by microplate alamar blue assay. It counts as functional. The settings on record: 144 h, read-out: GI.
Series [16] relates to Mycobacterium tuberculosis. The series can be described thus: Inhibition of Mycobacterium tuberculosis H37Ra infected in human THP1 cells assessed as reduction in surviving bacteria at 1 ug/ml after 7 days by serial dilution method. It is filed as functional. The settings on record: THP-1, 168 h.
Series [17] relates to Mycobacterium tuberculosis. Nature of the series: Growth inhibition of Mycobacterium tuberculosis H37Ra at 0.2 ug/ml after 6 days by microplate alamar blue assay. It is filed as functional. Particulars: 144 h, read-out: GI.
The test system of series [18] is Mycobacterium tuberculosis. The series can be described thus: Growth inhibition of Mycobacterium tuberculosis H37Ra at 0.012 ug/ml after 6 days by microplate alamar blue assay. It is filed as functional. Particulars: 144 h, read-out: GI.
Series [19] relates to Mycobacterium tuberculosis. The series can be described thus: Growth inhibition of Mycobacterium tuberculosis H37Ra at 0.006 ug/ml after 6 days by microplate alamar blue assay. It counts as functional. Particulars: 144 h, read-out: GI.
In series [20] the test system is Mycobacterium tuberculosis. The series can be described thus: Inhibition of Mycobacterium tuberculosis H37Ra infected in human THP1 cells assessed as reduction in surviving bacteria at 200 ug/ml after 7 days by serial dilution method. It is filed as functional. The settings on record: THP-1, 168 h.
The test system of series [21] is Mycobacterium tuberculosis. Nature of the series: Growth inhibition of Mycobacterium tuberculosis H37Ra at 100 ug/ml after 6 days by microplate alamar blue assay. It is filed as functional. The settings on record: 144 h, read-out: GI.
Series [22] relates to Mycobacterium tuberculosis. The series can be described thus: Growth inhibition of Mycobacterium tuberculosis H37Ra at 75 ug/ml after 6 days by microplate alamar blue assay. Particulars: 144 h, read-out: GI. It is filed as functional.
In series [23] the test system is Mycobacterium tuberculosis. The series can be described thus: Growth inhibition of Mycobacterium tuberculosis H37Ra at 100 ug/ml after 6 days in presence of 0.2 ug/ml of isoniazid by microplate alamar blue assay. It counts as functional.
Series [24] relates to Mycobacterium tuberculosis. The series can be described thus: Growth inhibition of Mycobacterium tuberculosis H37Ra at 75 ug/ml after 6 days in presence of 0.2 ug/ml of isoniazid by microplate alamar blue assay. It is filed as functional.
In series [25] the test system is Mycobacterium tuberculosis. The series can be described thus: Growth inhibition of Mycobacterium tuberculosis H37Ra assessed as fractional inhibitory concentration index at 100 ug/ml after 6 days in presence of 0.2 ug/ml of isoniazid by microplate alamar blue assay. It is filed as functional.
Series [26] concerns Mycobacterium tuberculosis. Nature of the series: Growth inhibition of Mycobacterium tuberculosis H37Ra assessed as fractional inhibitory concentration index at 75 ug/ml after 6 days in presence of 0.2 ug/ml of isoniazid by microplate alamar blue assay. It counts as functional.
The subject of series [27] is Mycobacterium tuberculosis. The series can be described thus: Growth inhibition of Mycobacterium tuberculosis H37Ra at 50 ug/ml after 6 days by microplate alamar blue assay. It is filed as functional. The settings on record: 144 h, read-out: GI.
In series [28] the test system is Mycobacterium tuberculosis. Nature of the series: Growth inhibition of Mycobacterium tuberculosis H37Ra at 50 ug/ml after 6 days in presence of 0.012 ug/ml of isoniazid and 0.002 ug/ml of rifampicin by microplate alamar blue assay. It is filed as functional.
Series [29] relates to Mycobacterium tuberculosis. The series can be described thus: Growth inhibition of Mycobacterium tuberculosis H37Ra assessed as fractional inhibitory concentration index at 50 ug/ml after 6 days in presence of 0.012 ug/ml of isoniazid and 0.002 ug/ml of rifampicin by microplate alamar blue assay. It counts as functional.
Series [30] relates to Mycobacterium tuberculosis. The series can be described thus: Growth inhibition of Mycobacterium tuberculosis H37Ra at 50 ug/ml after 6 days in presence of 0.006 ug/ml of isoniazid and 0.002 ug/ml of rifampicin by microplate alamar blue assay. It counts as functional.
For series [31], the system named is Mycobacterium tuberculosis. The series can be described thus: Growth inhibition of Mycobacterium tuberculosis H37Ra assessed as fractional inhibitory concentration index at 50 ug/ml after 6 days in presence of 0.006 ug/ml of isoniazid and 0.002 ug/ml of rifampicin by microplate alamar blue assay. It counts as functional.
The subject of series [32] is Escherichia coli. The series can be described thus: Growth inhibition of Escherichia coli ATCC 25922 at 10 to 200 ug/ml after 16 to 20 hrs by broth microdilution method. It counts as functional.
In series [33] the test system is Pseudomonas aeruginosa. The series can be described thus: Growth inhibition of Pseudomonas aeruginosa ATCC 13048 at 10 to 200 ug/ml after 16 to 20 hrs by broth microdilution method. It is filed as functional.

In general, CC50 refers to the concentration that lowers cell viability or growth by half. As a reminder, the inhibition is how much of the control response was suppressed.

In brackets after ≈: the same amount, converted by molar mass.

On to GENTAMICIN, for which the MIC100 in the series on Staphylococcus aureus [1] was determined as 0.5 µg/mL; against Enterococcus faecalis [2] it was 12.5 µg/mL; in the series with Escherichia coli [3] it was 1 µg/mL; in the series on Salmonella typhimurium (Salmonella enterica subsp. enterica serovar Typhimurium), 1 µg/mL; against Pseudomonas aeruginosa [4], 1 µg/mL.
As for `CC[C@H]1OC(=O)[C@H](C)[C@@H](O[C@H]2C[C@@](C)(OC)[C@@H](O)[C@H](C)O2)[C@H](C)[C@@H](O[C@@H]2O[C@H](C)C[C@H](N(C)C)[C@H]2O)[C@](C)(OC)C[C@@H](C)C(=O)[C@H](C)[C@@H](O)[C@]1(C)O` [CLARITHROMYCIN], the inhibition of growth at 2 µg/mL in the series on Mycobacterium avium [5] came out at 100%.
In the case of `CO[C@H]1/C=C/O[C@@]2(C)Oc3c(C)c(O)c4c(O)c(c(/C=N/N5CCN(C)CC5)c(O)c4c3C2=O)NC(=O)/C(C)=C\C=C\[C@H](C)[C@H](O)[C@@H](C)[C@@H](O)[C@@H](C)[C@H](OC(C)=O)[C@@H]1C` [RIFAMPIN], the inhibition of growth at 0.5 µg/mL in series [6] was found to be 100%. Further, the inhibition of growth at 2 µg/mL in the series with Mycobacterium avium [5] is 90%. In addition, the inhibition of growth at 0.002 µg/mL in series [7] was 46.2%.
Turning to `CN[C@H](CC(C)C)C(=O)N[C@H]1C(=O)N[C@@H](CC(N)=O)C(=O)N[C@H]2C(=O)N[C@H]3C(=O)N[C@H](C(=O)N[C@H](C(=O)O)c4cc(O)cc(O)c4-c4cc3ccc4O)[C@H](O)c3ccc(c(Cl)c3)Oc3cc2cc(c3O[C@@H]2O[C@H](CO)[C@@H](O)[C@H](O)[C@H]2O[C@H]2C[C@](C)(N)[C@H](O)[C@H](C)O2)Oc2ccc(cc2Cl)[C@H]1O` [VANCOMYCIN], the figures for the MIC with Staphylococcus aureus [1] and in the series with Enterococcus faecalis [2] were 1.5 µg/mL (≈ 1.04 µM) and 4.5 µg/mL (≈ 3.11 µM), respectively.
Consider `C#CCOc1cn([C@@H]2O[C@H](CO)[C@@H](O)[C@H]2F)c(=O)n(CC#C)c1=O`, for which the inhibition of growth at 200 µg/mL in [8] is 35%; in the series with Mycobacterium avium [9], 0%. The CC50 at 72 h in series [10] was greater than 300 µg/mL. The MIC in the series with Staphylococcus aureus [1] was 200 µg/mL (≈ 591 µM); with Enterococcus faecalis [2], 200 µg/mL (≈ 591 µM); in the series with Escherichia coli [3] (read-out: MIC100), greater than 200 µg/mL; with Salmonella typhimurium, greater than 200 µg/mL; with Pseudomonas aeruginosa [4] (read-out: MIC100), greater than 200 µg/mL. Also, the “growth inhibition (GI)” value in the series with Staphylococcus aureus [11] and with Enterococcus faecalis [13] was 100% each time. The “fractional inhibitory concentration index (FICI)” value in the series with Staphylococcus aureus [12] was 0.7; in the series with Enterococcus faecalis [14] it was 0.86.
On to `NNC(=O)c1ccncc1` [ISONIAZID], for which the inhibition of growth at 1 µg/mL in series [15] stood at 100%. The inhibition at 1 µg/mL in [16] was greater than 90%. For the same compound, the inhibition of growth at 0.2 µg/mL in series [17] was found to be 48.8%. In addition, the inhibition of growth at 0.012 µg/mL in [18] turned out to be 7.22%. Further, the inhibition of growth at 0.006 µg/mL in series [19] worked out at 1.47%.
As to `C#CCOc1cn([C@@H]2O[C@H](CO)[C@@H](O)[C@H]2F)c(=O)[nH]c1=O`, the inhibition of growth at 200 µg/mL in series [8] stood at 97%; in the series on Mycobacterium avium [9], 0%. Moreover, the inhibition at 200 µg/mL in series [20] was 50%. In addition, in series [21], the inhibition of growth at 100 µg/mL stood at 3.15%. Further, the inhibition of growth at 75 µg/mL in series [22] was 1.15%. Moreover, the “growth inhibition (GI)” value stood at 99.15% in series [23]; 81.16% in series [24]; 97.81% in [28]; 93.36% in series [30]; 0% with Escherichia coli [32]; 0% in the series with Pseudomonas aeruginosa [33]. Moreover, the “fractional inhibitory concentration index (FICI)” value stood at 0.03 in series [25], 0.56 in [26], 0.09 in [29] and 0.21 in series [31]. Moreover, the inhibition of growth at 50 µg/mL in [27] amounted to 2.51%. The cytotoxic concentration (CC50) at 72 h in series [10] is greater than 300 µg/mL. Moreover, the MIC in the series with Staphylococcus aureus [1], in the series with Enterococcus faecalis [2] and in the series with Salmonella typhimurium was greater than 200 µg/mL each time.
